Data as given in patent publication US9242933B2 (AbbVie Deutschland GmbH & Co. KG, priority 2007, dated 2016).

target: T1, human mGlu2 receptor (Homo sapiens, UniProt Q14416); assay: FLIPR intracellular Ca2+ assay, potentiation of glutamate response in HEK293 clone expressing mGlu2 receptor, rGLAST and Galpha16; format: cell-based; settings: 1 μM glutamate added ten minutes after test compound, HEK293 cells with human mGlu2, rGLAST, Galpha16, read-out: EC50 values of potentiation effect to glutamate
T1 construct: expressed in transfected cells; host or cells: HEK293
T1 sequence (Q14416 19-872): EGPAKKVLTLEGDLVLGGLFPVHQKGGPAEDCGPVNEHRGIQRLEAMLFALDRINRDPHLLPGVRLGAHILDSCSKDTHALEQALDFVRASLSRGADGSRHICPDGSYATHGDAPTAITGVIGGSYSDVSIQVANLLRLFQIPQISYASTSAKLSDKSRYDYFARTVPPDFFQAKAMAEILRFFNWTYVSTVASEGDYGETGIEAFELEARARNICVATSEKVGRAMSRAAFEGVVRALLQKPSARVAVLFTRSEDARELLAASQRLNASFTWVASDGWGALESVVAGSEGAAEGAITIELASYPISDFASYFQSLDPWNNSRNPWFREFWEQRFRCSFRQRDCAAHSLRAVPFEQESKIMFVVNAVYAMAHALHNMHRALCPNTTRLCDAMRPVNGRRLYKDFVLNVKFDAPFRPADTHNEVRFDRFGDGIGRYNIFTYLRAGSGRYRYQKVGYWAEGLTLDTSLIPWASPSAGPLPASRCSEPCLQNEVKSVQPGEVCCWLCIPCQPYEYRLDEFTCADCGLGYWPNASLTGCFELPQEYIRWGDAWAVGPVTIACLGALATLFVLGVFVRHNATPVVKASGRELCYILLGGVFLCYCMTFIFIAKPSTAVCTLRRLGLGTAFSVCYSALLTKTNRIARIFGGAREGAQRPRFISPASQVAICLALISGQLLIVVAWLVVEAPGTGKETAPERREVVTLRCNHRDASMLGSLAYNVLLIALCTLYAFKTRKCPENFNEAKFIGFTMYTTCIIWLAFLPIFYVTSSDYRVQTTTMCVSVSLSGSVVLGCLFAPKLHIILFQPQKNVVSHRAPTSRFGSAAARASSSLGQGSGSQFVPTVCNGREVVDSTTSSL
Text: The compounds of the present invention can be tested e.g. by evaluating intracellular Ca^2+ concentrations in cells permanently expressing human mGlu receptor, the rat glutamate transporter rGLAST and the Galpha16 subunit of the G-protein complex under standard conditions in a fluorometric imaging plate reader (FLIPR, Molecular Devices, Union City, Calif. 94587, USA) by measuring the response of the cells to a test compound in the absence of presence of glutamate. The FLIPR assay is a common functional assay to monitor native or recombinant Galphaq-coupled receptors, and native or recombinant receptors normally linked to other G-protein signalling cascades, which are coupled to calcium through co-expression of an alpha subunit of a promiscuous or chimeric G-protein. In the assay the increase of intracellular calcium is measured through a calcium-dependent fluorescent dye (e.g. Fluo-4 AM) in the FLIPR instrument.
For the purpose of the present study, a cell line permanently expressing a human mGlu receptor, such as the mGlu2 receptor, the rat glutamate transporter rGLAST and the GalphaG16 may be generated by transfection as described in the examples. For selection of a suitable cell clone and also the subsequent measurements, the selected clone the cells will be plated on suitable multiwell plates in a suitable medium (e.g. DMEM Glutamax (GIBCO #21885-025)/10% dialyzed FCS). Cells may be selected by gentamycin treatment as described in the examples. Cells will then be loaded with a suitable Ca^2+ sensitive fluorescence dye, e.g. with 2 μM Fluo-4 AM (Molecular Probes, F14201). Cells will then be washed with a suitable buffer (e.g. HEPES) and the thus treated plates will be measured in a fluorometric imaging plate reader (e.g. FLIPR, Molecular Devices, Union City, Calif. 94587, USA).
The compounds of the present invention were tested in the above-described FLIPR assay using the selected cell clone. Increased intracellular calcium levels were quantified following addition of test compound (agonism), as well as following addition of a submaximal concentration of glutamate (potentiation).
For the determination of the effect of the test compound by itself (agonism) or by increasing the response to a submaximal concentration (e.g. 1 μM) of glutamate (potentiation), the resulting signal is determined by subtraction of the background fluorescence from the maximal fluorescent peak height of the respective response. In the FLIPR instrument the compound is given to the cell and its fluorescence response quantified by the FLIPR instrument (agonism). The concentration at which the compound exerts half its maximal effect is named the ‘effective concentration 50’ or ‘EC50’. The maximal effect induced by the test substance is normalized to the maximal effect exerted by 100 μM glutamate (set at 100%).
After addition of the test compound to the plate, a submaximal concentration of glutamate (e.g. 1 μM glutamate) will be added. A potentiator enhances the response of the receptor to glutamate. The response to glutamate in the presence of test compound is quantified. The concentration at which the test compound is able to exert half its maximal potentiation effect to glutamate is named the ‘EC50’. The maximal response to the submaximal concentration of glutamate (e.g. 1 micromolar glutamate) in the presence of test compound is normalized to the maximal effect exerted by 100 micromolar glutamate (set at 100%). Least squares curve fitting with a four-parameter equation is then applied to the resulting dose-response curve to determine the resulting EC5O values (Graph Pad Prism).
For the purpose of the present study, a cell line permanently expressing the human mGlu2 receptor, the rat glutamate transporter rGLAST and the alpha subunit of G16 was generated by transfection. […]

| Compound | EC50 [nM] |
| --- | --- |
| CCCC(=O)c1ccc(NCc2cccnc2-c2ccsc2)cc1 [Example 321, 1-{4-[(2-Thiophen-3-yl-pyridin-3-ylmethyl)-amino]-phenyl}-butan-1-one] | 1000 to 10000 |
| FC(F)(F)c1ccc(-c2n[nH]cc2CNc2ccc(Cl)cn2)cc1 [Example 340, (5-Chloro-pyridin-2-yl)-[3-(4-trifluoromethyl-phenyl)-1H-pyrazol-4-ylmethyl]-amine] | 1000 to 10000 |
| Cc1cc(C)nc(NCc2c[nH]nc2-c2ccc(C(F)(F)F)cc2)c1 [Example 341, (4,6-Dimethyl-pyridin-2-yl)-[3-(4-trifluoromethyl-phenyl)-1H-pyrazol-4-ylmethyl]-amine] | 1000 to 10000 |
| FC(F)(F)c1ccc(-c2n[nH]cc2CNc2cccc(Cl)n2)cc1 [Example 349, (6-Chloro-pyridin-2-yl)-[3-(4-trifluoromethyl-phenyl)-1H-pyrazol-4-ylmethyl]-amine] | 1000 to 10000 |
| COc1ccc(NCc2c[nH]nc2-c2ccc(C(F)(F)F)cc2)c(OC)n1 [Example 351, (2,6-Dimethoxy-pyridin-3-yl)-[3-(4-trifluoromethyl-phenyl)-1H-pyrazol-4-ylmethyl]-amine] | 1000 to 10000 |
| CC(=O)c1sccc1NCc1c[nH]nc1-c1ccc(C(F)(F)F)cc1 [Example 355, 1-(3-{[3-(4-Trifluoromethyl-phenyl)-1H-pyrazol-4-ylmethyl]-amino}-thiophen-2-yl)-ethanone] | 1000 to 10000 |
| Cc1ccc(NCc2c[nH]nc2-c2ccc(C(F)(F)F)cc2)nc1C [Example 363, (5,6-Dimethyl-pyridin-2-yl)-[3-(4-trifluoromethyl-phenyl)-1H-pyrazol-4-ylmethyl]-amine] | 1000 to 10000 |
| CCCC(=O)c1ccc(NCc2cn(C)nc2-c2ccc(C(F)(F)F)cc2)cc1 [Example 374, 1-(4-{[1-Methyl-3-(4-trifluoromethyl-phenyl)-1H-pyrazol-4-ylmethyl]-amino}-phenyl)-butan-1-one] | < 1000 |
| CCCC(=O)c1ccc(NCc2cnn(C)c2-c2ccc(C(F)(F)F)cc2)cc1 [Example 375, 1-(4-{[1-Methyl-5-(4-trifluoromethyl-phenyl)-1H-pyrazol-4-ylmethyl]-amino}-phenyl)-butan-1-one] | < 1000 |
| CCC(C)Oc1cccc(NCc2c[nH]nc2-c2ccc(C(F)(F)F)cc2)c1 (centres unmarked) [Example 378, (3-sec-Butoxy-phenyl)-[3-(4-trifluoromethyl-phenyl)-1H-pyrazol-4-ylmethyl]-amine] | 1000 to 10000 |
| CCCC(C)Oc1cccc(NCc2c[nH]nc2-c2ccc(C(F)(F)F)cc2)c1 (centres unmarked) [Example 379, [3-(1-Methyl-butoxy)-phenyl]-[3-(4-trifluoromethyl-phenyl)-1H-pyrazol-4-ylmethyl]-amine] | 1000 to 10000 |
| CCC(CC)Oc1cccc(NCc2c[nH]nc2-c2ccc(C(F)(F)F)cc2)c1 [Example 380, [3-(1-Ethyl-propoxy)-phenyl]-[3-(4-trifluoromethyl-phenyl)-1H-pyrazol-4-ylmethyl]-amine] | 1000 to 10000 |
| CCCC(=O)c1ccc(N(Cc2cccnc2)S(=O)(=O)CC(F)(F)F)cc1 [Example 383, 2,2,2-Trifluoro-ethanesulfonic acid (4-butyryl-phenyl)-pyridin-3-ylmethyl-amide] | 1000 to 10000 |
| CN(C)c1ccc(N(Cc2cccnc2)S(=O)(=O)CC(F)(F)F)cc1 [Example 385, 2,2,2-Trifluoro-ethanesulfonic acid (4-dimethylamino-phenyl)-pyridin-3-ylmethyl-amide] | 1000 to 10000 |
| CCCC(=O)c1cccc(NCc2cccnc2)c1 [Example 386, 1-{3-[(Pyridin-3-ylmethyl)-amino]-phenyl}-butan-1-one] | 1000 to 10000 |
| CCCC(=O)c1ccc(NCc2ccc(N(C)C)nc2)cc1 [Example 387, 1-{4-[(6-Dimethylamino-pyridin-3-ylmethyl)-amino]-phenyl}-butan-1-one] | 1000 to 10000 |

| Compound | EC50 [nM] |
| --- | --- |
| CN(C)c1cccc(N(Cc2cccnc2)S(=O)(=O)CC(F)(F)F)c1 [Example 389, 2,2,2-Trifluoro-ethanesulfonic acid (3-dimethylamino-phenyl)-pyridin-3-ylmethyl-amide] | 1000 to 10000 |
| CCCC(=O)c1cccc(N(Cc2cccnc2)S(=O)(=O)CC(F)(F)F)c1 [Example 390, 2,2,2-Trifluoro-ethanesulfonic acid (3-butyryl-phenyl)-pyridin-3-ylmethyl-amide] | < 1000 |
| CCCC(=O)c1ccc(N(Cc2ccc(N(C)C)nc2)S(=O)(=O)CC(F)(F)F)cc1 [Example 391, 2,2,2-Trifluoro-ethanesulfonic acid (4-butyryl-phenyl)-(6-dimethylamino-pyridin-3-ylmethyl)-amide] | 1000 to 10000 |
| CCCC(=O)c1cccc(N(C)Cc2c[nH]nc2-c2ccc(C(F)(F)F)cc2)c1 [Example 392, 1-(3-{Methyl-[3-(4-trifluoromethyl-phenyl)-1H-pyrazol-4-ylmethyl]-amino}-phenyl)-butan-1-one] | 1000 to 10000 |
| CS(=O)(=O)c1ccc(NCc2c[nH]nc2-c2ccc(C(F)(F)F)cc2)cc1 [Example 399, (4-Methanesulfonyl-phenyl)-[3-(4-trifluoromethyl-phenyl)-1H-pyrazol-4-ylmethyl]-amine] | 1000 to 10000 |
| Cc1cc(=O)c2ccc(NCc3c[nH]nc3-c3ccc(C(F)(F)F)cc3)cc2o1 [Example 400, 2-Methyl-7-{[3-(4-trifluoromethyl-phenyl)-1H-pyrazol-4-ylmethyl]-amino}-chromen-4-one] | 1000 to 10000 |
| CCCC(=O)c1ccc(NCc2c[nH]nc2-c2cccc(C(F)(F)F)c2)cc1 [Example 416, 1-(4-{[3-(3-Trifluoromethyl-phenyl)-1H-pyrazol-4-ylmethyl]-amino}-phenyl)-butan-1-one] | 1000 to 10000 |
| CCCC(=O)c1ccc(OCCCCOc2cccnc2)cc1 [Example 423, 1-{4-[4-(Pyridin-3-yloxy)-butoxy]-phenyl}-butan-1-one] | 1000 to 10000 |
| CN(C)S(=O)(=O)c1cccc(NCc2c[nH]nc2-c2ccc(Cl)cc2)c1 [Example 430, 3-{[3-(4-Chloro-phenyl)-1H-pyrazol-4-ylmethyl]-amino}-N,N-dimethyl-benzenesulfonamide] | 1000 to 10000 |
| CN(C)C(=O)c1ccc(NCc2c[nH]nc2-c2cccc(C(F)(F)F)c2)cc1 [Example 433, N,N-Dimethyl-4-{[3-(3-trifluoromethyl-phenyl)-1H-pyrazol-4-ylmethyl]-amino}-benzamide] | 1000 to 10000 |
| CCCC(=O)c1ccc(NCc2c[nH]nc2-c2cccc(C(F)(F)F)c2)cc1OC [Example 434, 1-(2-Methoxy-4-{[3-(3-trifluoromethyl-phenyl)-1H-pyrazol-4-ylmethyl]-amino}-phenyl)-butan-1-one] | < 1000 |
| CCCc1c(NCc2c[nH]nc2-c2cccc(C(F)(F)F)c2)ccc(C(C)=O)c1O [Example 436, 1-(2-Hydroxy-3-propyl-4-{[3-(3-trifluoromethyl-phenyl)-1H-pyrazol-4-ylmethyl]-amino}-phenyl)-ethanone] | 1000 to 10000 |
| CCCC(=O)c1ccc(NCc2c[nH]nc2-c2ccc(Cl)cc2)cc1OC(CC)CC [Example 437, 1-[4-{[3-(4-Chloro-phenyl)-1H-pyrazol-4-ylmethyl]-amino}-2-(1-ethyl-propoxy)-phenyl]-butan-1-one] | 1000 to 10000 |
| CC(=O)c1ccc(NCc2c[nH]nc2-c2ccc(Cl)cc2)c(C)c1O [Example 440, 1-(4-{[3-(4-Chloro-phenyl)-1H-pyrazol-4-ylmethyl]-amino}-2-hydroxy-3-methyl-phenyl)-ethanone] | < 1000 |
| O=C(c1ccc(OCc2c[nH]nc2-c2cccc(C(F)(F)F)c2)cc1)C1CCCC1 [Example 442, Cyclopentyl-{4-[3-(3-trifluoromethyl-phenyl)-1H-pyrazol-4-ylmethoxy]-phenyl}-methanone] | < 1000 |
| COC(=O)c1ccc(NCc2c[nH]nc2-c2ccc(Cl)cc2)cc1 [Example 443, 4-{[3-(4-Chloro-phenyl)-1H-pyrazol-4-ylmethyl]-amino}-benzoic acid methyl ester] | 1000 to 10000 |
